Test results taken from patent publication US9687484B2, “Crystalline forms of an antidepressant compound” (DIPHARMA FRANCIS S.r.l., priority 2014, dated 2017).
Counter-ions that a name gives are not always drawn.

Columns and labels:
[1] = Physical and chemical stability of crystalline form ω under standard conditions; format: physicochemical; details: standard pressure, temperature and humidity conditions; FIGS. 6 and 7
[2] = Hygroscopicity of crystalline form ω under standard storage conditions; format: physicochemical
[3] = XRPD comparison of crystalline form ω fresh and after storage; format: physicochemical; details: in the presence of moisture; FIGS. 6 and 7: 4° C. 24 hours, room temperature 24 hours, 25° C. and 60% RH 7 days
Experimental: FIG. 6: Comparison of XRPD spectra of a sample of vortioxetine hydrobromide in crystalline form ω, as defined herein, freshly prepared (top line), after the same sample of vortioxetine hydrobromide in crystalline form ω has been kept at low temperature (4° C.) for 24 hours (middle line), and after the sample has been kept at room temperature for 24 hours (bottom line).
FIG. 7: Comparison of XRPD spectra of a sample of vortioxetine hydrobromide in crystalline form ω, as defined herein, freshly prepared (bottom line), and the same sample analysed after 7 days, kept at a temperature of 25° C. and 60% relative humidity (RH) (top line).
Crystalline form ω of vortioxetine hydrobromide was characterised by X-ray powder diffraction (XRPD). The X-ray powder diffraction (XRPD) spectra shown in FIGS. 3, 6 and 7 were collected with a PANalytical X'Pert PRO automatic powder diffractometer under the following operating conditions: CuKα radiation (λ=1.54 Å), scanning with a 2θ angle range of 3-40° with a step size of 0.017° for 12.7 sec.

[4] = as said in WO 2014/044721; cited from earlier work
[5] = greater relative humidity than the standard conditions; as described in WO 2007/144005, acknowledged by WO2014/044721; cited from earlier work

Cc1ccc(Sc2ccccc2N2CCNCC2)c(C)c1 [crystalline form ω, hydrobromide salt of 1-[2-(2,4-dimethylphenylsulphanyl)phenyl]piperazine]
physical and chemical stability [1]: stable from both the physical and the chemical standpoint | hygroscopicity [2]: not hygroscopic | retention of crystalline form (XRPD) [3]: keeps its crystalline form

Cc1ccc(Sc2ccccc2N2CCNCC2)c(C)c1 [delta crystalline form, vortioxetine hydrobromide]
solubility in water [4]: high solubility in water

Cc1ccc(Sc2ccccc2N2CCNCC2)c(C)c1 [gamma, vortioxetine hydrobromide]
hygroscopicity (tendency to absorb water) [5]: significant hygroscopicity
